Measured values published in ChEMBL document CHEMBL3217609, “Discovery and characterization of novel potent PARP-1 inhibitors endowed with neuroprotective properties: From TIQ-A to [sequence]” (Medchemcomm, 2011).

What was measured:
[1] = molecular target: T1, Poly [ADP-ribose] polymerase tankyrase-1 (Homo sapiens, UniProt O95271); experiment: Inhibition of tankyrase-1 function in human HeLa cells; format: cell-based
T1 sequence (O95271 whole entry): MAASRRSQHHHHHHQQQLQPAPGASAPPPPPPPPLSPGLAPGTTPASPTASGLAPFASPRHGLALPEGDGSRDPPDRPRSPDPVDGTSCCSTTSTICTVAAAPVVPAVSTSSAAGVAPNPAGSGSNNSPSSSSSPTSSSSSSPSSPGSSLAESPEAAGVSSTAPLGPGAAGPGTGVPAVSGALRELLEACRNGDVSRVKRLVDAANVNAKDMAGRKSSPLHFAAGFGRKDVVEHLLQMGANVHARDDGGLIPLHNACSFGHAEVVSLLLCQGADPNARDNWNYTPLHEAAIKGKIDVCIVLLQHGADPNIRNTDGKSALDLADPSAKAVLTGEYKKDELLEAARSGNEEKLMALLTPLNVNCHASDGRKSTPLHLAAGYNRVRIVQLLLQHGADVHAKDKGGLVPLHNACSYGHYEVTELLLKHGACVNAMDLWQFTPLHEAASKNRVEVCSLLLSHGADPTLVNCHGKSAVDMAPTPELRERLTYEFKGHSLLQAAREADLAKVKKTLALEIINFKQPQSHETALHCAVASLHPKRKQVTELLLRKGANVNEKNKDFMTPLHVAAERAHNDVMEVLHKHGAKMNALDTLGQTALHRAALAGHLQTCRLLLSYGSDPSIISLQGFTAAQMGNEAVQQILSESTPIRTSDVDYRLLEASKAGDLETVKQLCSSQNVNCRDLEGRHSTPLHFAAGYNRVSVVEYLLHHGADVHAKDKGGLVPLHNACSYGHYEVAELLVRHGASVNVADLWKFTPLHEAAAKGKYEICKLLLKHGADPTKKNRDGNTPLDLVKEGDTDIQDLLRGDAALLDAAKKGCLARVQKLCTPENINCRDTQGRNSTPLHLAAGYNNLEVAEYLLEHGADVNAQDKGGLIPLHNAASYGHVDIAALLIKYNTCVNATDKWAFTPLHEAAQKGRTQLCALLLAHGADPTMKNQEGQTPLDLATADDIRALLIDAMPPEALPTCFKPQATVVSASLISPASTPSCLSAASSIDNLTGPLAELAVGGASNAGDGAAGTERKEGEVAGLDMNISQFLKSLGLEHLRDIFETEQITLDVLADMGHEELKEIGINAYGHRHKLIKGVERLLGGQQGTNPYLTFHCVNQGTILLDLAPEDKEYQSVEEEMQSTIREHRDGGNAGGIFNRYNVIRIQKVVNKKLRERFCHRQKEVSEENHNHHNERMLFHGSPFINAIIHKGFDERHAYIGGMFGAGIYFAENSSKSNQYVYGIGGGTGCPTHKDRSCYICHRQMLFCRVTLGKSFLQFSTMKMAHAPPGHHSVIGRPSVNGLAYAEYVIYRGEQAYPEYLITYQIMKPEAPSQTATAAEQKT

[2] = molecular target: Poly [ADP-ribose] polymerase 2 (Mus musculus, UniProt O88554); experiment: Inhibition of mouse recombinant PARP2 assessed as radioactivity incorporated from [adenine-2,8-3H]NAD into proteins by liquid scintillation spectrometry
Chain of Poly [ADP-ribose] polymerase 2 (O88554 whole entry): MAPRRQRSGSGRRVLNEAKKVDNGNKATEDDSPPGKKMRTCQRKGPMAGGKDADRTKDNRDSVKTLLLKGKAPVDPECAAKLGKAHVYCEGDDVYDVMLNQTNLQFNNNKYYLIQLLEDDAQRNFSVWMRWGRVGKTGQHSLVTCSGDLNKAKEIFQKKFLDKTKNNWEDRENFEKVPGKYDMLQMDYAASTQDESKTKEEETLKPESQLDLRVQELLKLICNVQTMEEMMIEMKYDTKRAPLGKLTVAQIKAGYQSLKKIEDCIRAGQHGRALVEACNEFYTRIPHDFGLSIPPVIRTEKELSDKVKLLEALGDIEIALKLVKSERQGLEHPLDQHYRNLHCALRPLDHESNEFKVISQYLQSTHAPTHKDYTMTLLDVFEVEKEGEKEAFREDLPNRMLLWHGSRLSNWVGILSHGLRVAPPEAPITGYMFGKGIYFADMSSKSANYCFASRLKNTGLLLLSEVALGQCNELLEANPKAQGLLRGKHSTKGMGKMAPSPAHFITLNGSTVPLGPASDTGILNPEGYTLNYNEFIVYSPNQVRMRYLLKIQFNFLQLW

[3] = molecular target: T2, Poly [ADP-ribose] polymerase 1 (Homo sapiens, UniProt P09874); experiment: Inhibition of human recombinant PARP1 by fluorescence based multiwell assay
T2 sequence (P09874 whole entry): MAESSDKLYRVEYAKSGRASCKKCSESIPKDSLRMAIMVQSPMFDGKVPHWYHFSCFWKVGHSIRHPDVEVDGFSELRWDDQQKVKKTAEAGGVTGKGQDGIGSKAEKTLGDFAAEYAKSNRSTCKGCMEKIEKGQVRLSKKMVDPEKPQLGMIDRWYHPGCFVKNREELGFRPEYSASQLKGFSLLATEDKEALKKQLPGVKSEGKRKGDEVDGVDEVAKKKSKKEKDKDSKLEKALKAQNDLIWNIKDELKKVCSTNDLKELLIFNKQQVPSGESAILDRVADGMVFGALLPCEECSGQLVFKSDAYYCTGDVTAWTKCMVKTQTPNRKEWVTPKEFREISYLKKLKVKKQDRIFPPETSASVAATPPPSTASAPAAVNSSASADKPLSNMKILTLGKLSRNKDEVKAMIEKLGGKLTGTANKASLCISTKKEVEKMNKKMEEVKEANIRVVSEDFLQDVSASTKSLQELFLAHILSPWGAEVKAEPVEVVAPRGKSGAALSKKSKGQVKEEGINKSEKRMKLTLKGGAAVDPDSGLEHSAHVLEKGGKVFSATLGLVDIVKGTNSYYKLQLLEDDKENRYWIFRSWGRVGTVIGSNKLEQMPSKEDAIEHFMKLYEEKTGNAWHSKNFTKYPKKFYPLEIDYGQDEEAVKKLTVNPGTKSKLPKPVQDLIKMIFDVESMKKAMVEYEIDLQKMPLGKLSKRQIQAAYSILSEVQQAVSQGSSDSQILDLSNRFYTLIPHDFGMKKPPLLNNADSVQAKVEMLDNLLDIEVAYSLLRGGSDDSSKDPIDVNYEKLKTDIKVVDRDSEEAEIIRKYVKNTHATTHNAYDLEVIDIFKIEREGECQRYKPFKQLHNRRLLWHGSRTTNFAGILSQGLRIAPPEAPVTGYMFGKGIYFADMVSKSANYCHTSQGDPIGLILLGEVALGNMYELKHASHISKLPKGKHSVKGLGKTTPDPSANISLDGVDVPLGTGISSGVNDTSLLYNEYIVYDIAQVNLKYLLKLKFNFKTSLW

Cortical neurone = experiment: Neuroprotective activity in mouse mixed cortical cells assessed as reduction in oxygen-glucose deprivation-induced LDH release; format: functional, cell-based
[4] = molecular target: T2, Poly [ADP-ribose] polymerase 1; experiment: Inhibition of human PARP1 in HEK293 cells assessed as prevention of in MNNG-induced ATP depletion; format: cell-based
Rattus norvegicus [5] = experiment: Neuroprotective activity in transient middle cerebral artery occlusion Sprague-Dawley rat model assessed as reduction in brain infarct volume at 10 mg/kg, ip 3 times, starting 4 hrs after occlusion relative to vehicle treated control; format: functional; details: route intraperitoneal
[6] = Ratio of drug level in brain to plasma in Sprague-Dawley rat at 10 mg/kg, iv; format: ADME, organism-based; set-up: dose 10 mg/kg, route intravenous; details: read-out: BPR
[7] = Cmax in Sprague-Dawley rat brain at 10 mg/kg, iv; format: ADME, organism-based; set-up: dose 10 mg/kg, route intravenous
[8] = AUC (0 to infinity) in Sprague-Dawley rat at 10 mg/kg, iv; format: ADME, organism-based; set-up: time infinity, dose 10 mg/kg, route intravenous; details: plasma
[9] = Half life in human liver microsomes; format: ADME
[10] = Permeability of the compound by PAMPA; format: physicochemical; details: read-out: permeability
Cytochrome P450 2D6 = Cytochrome P450 2D6 (Homo sapiens, UniProt P10635); experiment: Inhibition of CYP2D6 (unknown origin); format: ADME
Chain of Cytochrome P450 2D6 (P10635 whole entry): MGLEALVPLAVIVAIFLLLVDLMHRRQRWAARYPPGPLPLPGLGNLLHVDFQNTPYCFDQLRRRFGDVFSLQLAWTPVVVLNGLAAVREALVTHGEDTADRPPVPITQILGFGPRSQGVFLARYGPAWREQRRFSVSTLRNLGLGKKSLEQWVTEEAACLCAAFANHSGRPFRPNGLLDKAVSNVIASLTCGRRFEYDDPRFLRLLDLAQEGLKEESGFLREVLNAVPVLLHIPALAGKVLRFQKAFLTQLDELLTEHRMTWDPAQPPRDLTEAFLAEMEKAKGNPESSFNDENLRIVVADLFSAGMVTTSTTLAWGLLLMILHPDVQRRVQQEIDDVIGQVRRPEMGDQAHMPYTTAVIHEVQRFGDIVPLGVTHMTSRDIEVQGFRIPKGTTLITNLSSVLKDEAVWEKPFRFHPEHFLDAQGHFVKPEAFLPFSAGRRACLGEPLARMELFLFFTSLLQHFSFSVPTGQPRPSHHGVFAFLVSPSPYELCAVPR

[11] = Half life in Sprague-Dawley rat at 10 mg/kg, iv; format: ADME, organism-based; set-up: dose 10 mg/kg, route intravenous; details: in vivo
[12] = Kinetic aqueous solubility of the compound at pH 7.4 at 23 degC; format: physicochemical; details: buffer, read-out: Kinetic_solubility
Rattus norvegicus [13] = experiment: Neuroprotective activity in transient middle cerebral artery occlusion Sprague-Dawley rat model assessed as reduction in brain infarct volume at 0.1 mg/kg, ip 3 times, starting 4 hrs after occlusion relative to vehicle treated control; format: functional; details: route intraperitoneal
Brain = experiment: Free drug level in Sprague-Dawley rat brain at 10 mg/kg, iv; format: ADME, organism-based; set-up: dose 10 mg/kg, route intravenous; details: in vivo
[14] = Fraction unbound in Sprague-Dawley rat brain at 10 mg/kg, iv; format: ADME, organism-based; set-up: dose 10 mg/kg, route intravenous
[15] = Clearance in rat hepatocytes assessed per 10^6 cells; format: ADME, cell-based, Hepatocyte; details: read-out: CLH
Rattus norvegicus [16] = experiment: Neuroprotective activity in permanent middle cerebral artery occlusion Sprague-Dawley rat model assessed as reduction in brain infarct volume at 1 mg/kg, iv 3 times at 30 mins, 3.5 hrs and 6 hrs after occlusion relative to vehicle treated control; format: functional
[17] = Volume of distribution in Sprague-Dawley rat at 10 mg/kg, iv; format: ADME, organism-based; set-up: dose 10 mg/kg, route intravenous; details: in vivo
hERG (KCNH2) = hERG (KCNH2) (Homo sapiens, UniProt Q12809); experiment: Inhibition of human ERG at 10 uM
Chain of hERG (KCNH2) (Q12809 whole entry): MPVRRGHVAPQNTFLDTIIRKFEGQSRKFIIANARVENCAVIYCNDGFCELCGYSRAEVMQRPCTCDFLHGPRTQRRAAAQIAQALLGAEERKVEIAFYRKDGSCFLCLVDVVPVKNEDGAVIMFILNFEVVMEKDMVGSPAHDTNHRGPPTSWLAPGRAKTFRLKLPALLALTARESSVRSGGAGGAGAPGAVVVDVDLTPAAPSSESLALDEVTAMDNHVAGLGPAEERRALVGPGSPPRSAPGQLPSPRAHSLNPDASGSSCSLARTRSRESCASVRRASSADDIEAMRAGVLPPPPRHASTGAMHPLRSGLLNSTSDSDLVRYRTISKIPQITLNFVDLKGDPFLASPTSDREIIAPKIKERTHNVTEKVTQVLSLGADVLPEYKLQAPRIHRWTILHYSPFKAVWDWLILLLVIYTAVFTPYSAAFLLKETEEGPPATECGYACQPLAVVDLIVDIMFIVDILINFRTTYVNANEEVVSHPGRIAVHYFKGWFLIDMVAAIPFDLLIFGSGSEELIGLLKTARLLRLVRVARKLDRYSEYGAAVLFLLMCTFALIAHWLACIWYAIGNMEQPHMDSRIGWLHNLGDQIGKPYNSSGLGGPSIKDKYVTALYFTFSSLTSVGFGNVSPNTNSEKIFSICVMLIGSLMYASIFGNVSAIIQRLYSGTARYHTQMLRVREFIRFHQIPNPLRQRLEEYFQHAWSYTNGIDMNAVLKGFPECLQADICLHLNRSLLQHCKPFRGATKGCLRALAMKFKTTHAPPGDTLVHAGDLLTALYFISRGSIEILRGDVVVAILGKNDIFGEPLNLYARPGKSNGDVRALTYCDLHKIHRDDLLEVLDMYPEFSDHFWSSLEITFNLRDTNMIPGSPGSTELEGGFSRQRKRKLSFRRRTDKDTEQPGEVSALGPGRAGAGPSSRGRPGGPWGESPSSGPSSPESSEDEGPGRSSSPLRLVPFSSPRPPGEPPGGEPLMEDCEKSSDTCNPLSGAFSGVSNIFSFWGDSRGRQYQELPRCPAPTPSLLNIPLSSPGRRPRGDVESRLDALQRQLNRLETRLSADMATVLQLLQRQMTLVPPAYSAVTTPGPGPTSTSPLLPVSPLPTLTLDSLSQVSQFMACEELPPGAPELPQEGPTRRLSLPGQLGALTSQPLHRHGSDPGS

Rattus norvegicus [18] = experiment: Clearance in Sprague-Dawley rat at 10 mg/kg, iv; format: ADME, organism-based; set-up: dose 10 mg/kg, route intravenous; details: in vivo
[19] = Half life in rat liver microsomes; format: ADME
[20] = Clearance in human hepatocytes assessed per 10^6 cells; format: ADME, cell-based, Hepatocyte; details: read-out: CLH
Rattus norvegicus [21] = experiment: Neuroprotective activity in transient middle cerebral artery occlusion Sprague-Dawley rat model assessed as reduction in brain infarct volume at 1 mg/kg, ip 3 times, starting 4 hrs after occlusion relative to vehicle treated control; format: functional; details: route intraperitoneal

CN(C)Cc1cc2c([nH]c(=O)c3ccccc32)s1
IC50 [1]: > 100000 nM
IC50 [2]: 300 nM
IC50 [3]: 180 nM

O=c1[nH]c2ccccc2c2ccccc12
EC50 (Cortical neurone): 2370 nM
EC50 [4]: 945 nM

Br.CN(C)Cc1cc2c([nH]c(=O)c3cccc(O)c32)s1
inhibition in vivo at 10 mg/kg (Rattus norvegicus [5]): 62%
Kp [6]: 0.26
Cmax [7]: 678 nM
IC50 [1]: > 100000 nM
EC50 (Cortical neurone): 300 nM
IC50 [2]: 38 nM
AUC(0-inf) [8]: 1680 ng·h/mL
half-life [9]: 30 min
Papp [10]: 4.6 ×10⁻⁶ cm/s
IC50 (Cytochrome P450 2D6): 170000 nM
half-life [11]: 48 min
EC50 [4]: 14 nM
IC50 [3]: 29 nM
solubility kinetic [12]: 70 µg/mL
inhibition in vivo at 0.1 mg/kg (Rattus norvegicus [13]): 17.5%
Drug uptake(free) (Brain): 87 nM
fraction unbound [14]: 0.13
hepatocyte CLint [15]: 26.4 µL/min/1e6 cells
inhibition in vivo at 1 mg/kg (Rattus norvegicus [16]): 42%
Vd [17]: 2.1 L/kg
inhibition at 10 µM (hERG (KCNH2)): 14%
clearance (Rattus norvegicus [18]): 69 mL/min/kg
half-life [19]: 3 min
hepatocyte CLint [20]: 22.2 µL/min/1e6 cells
inhibition in vivo at 1 mg/kg (Rattus norvegicus [21]): 55%

O=c1[nH]c2sccc2c2ccccc12
IC50 [2]: 600 nM
IC50 [3]: 900 nM
solubility kinetic [12]: < 100 µg/mL
